Data on 4 compounds can be found in PMC6019266 (Biochemistry, 2017).

One test deals with E. coli. The settings on record: cited from earlier work.
For another test, the system named is Vibrio cholerae. The settings on record: cited from earlier work.
Another test concerns the target Rv0091 (Mycobacterium tuberculosis, UniProt P9WJM3). The experiment in a line: Dissociation constants. It counts as biochemical.
The test system of test [1] is auto-inducer (AI-2) production. The conditions noted are these: cited from earlier work.
For the next test, the system named is H. pylori (J99). Description: Antibacterial activity assay in liquid culture. It counts as cell-based, Helicobacter pylori.
Test [2] has as its system M. tuberculosis strain mc^26230. It counts as cell-based, Mycobacterium tuberculosis. The conditions noted are these: disc diffusion, 96 h, 37 °C. In general terms: In agar diffusion tests the substance spreads into inoculated agar from a disc or well.
The subject of test [3] is M. smegmatis strain mc^2155. Description: Disc-diffusion growth inhibition assay. It counts as cell-based, Mycobacterium smegmatis. The conditions noted are these: 96 h, 37 °C.

≈ marks a conversion by molar mass, not a printed value. Where two headings read alike, the source gives them in different places.

Rv0091, sequence (P9WJM3 whole entry, looked up): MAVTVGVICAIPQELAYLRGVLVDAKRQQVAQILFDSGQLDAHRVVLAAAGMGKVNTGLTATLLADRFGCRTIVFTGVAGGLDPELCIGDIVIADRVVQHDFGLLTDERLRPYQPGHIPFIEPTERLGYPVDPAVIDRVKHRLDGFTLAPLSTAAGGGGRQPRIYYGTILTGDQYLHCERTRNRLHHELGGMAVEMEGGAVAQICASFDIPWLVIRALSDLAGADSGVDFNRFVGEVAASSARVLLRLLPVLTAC

Turning to `CCCCSCC1CN(Cc2c[nH]c3c(N)ncnc23)C[C@H]1O` (stereo partly drawn) [Compound 13], the toxicity to growth result in the test on E. coli and in the test on Vibrio cholerae was “not toxic” in each case. Further, at Rv0091 (ratio of dissociation constants), the “weaker binding than HT-DADMe-ImmA” value is given as 15 times. Besides, in test [1], the “effect on production of auto-inducer (AI-2)” value is on record as “inhibited production”.
Regarding `CCCCCCSC[C@H]1CN(Cc2c[nH]c3c(N)ncnc23)C[C@@H]1O` [Compound 14], the “more potent than tetracycline” value with H. pylori (J99) is given as 6 times. Moreover, the “IC50 (antibacterial activity; MIC50 in methods)” value in the test with H. pylori (J99) (72 h, 37 °C, OD600) was determined as 0.013 ± 0.0018 µg/mL (≈ 0.0358 µM). For the same compound, the “bound tighter than MT-DADMe-ImmA (11)” value at Rv0091 (ratio of Ki values, Table 1) was found to be 17 times. In addition, the zone of clearance entry in test [2] (1000 μg/mL) and in test [3] (1000 μg/mL) was “small zone of clearance” in each case.
As to `CSC[C@@H]1CN(Cc2c[nH]c3c(N)ncnc23)C[C@H]1O` [Compound 20], at Rv0091 (at concentrations of ≤400 μM), the “activity toward Rv0091” value is “no activity”.
Turning to `NC[C@H]1O[C@H](O[C@H]2[C@H](O)[C@@H](O[C@H]3O[C@H](CO)[C@@H](O)[C@H](N)[C@H]3O)[C@H](N)C[C@@H]2N)[C@H](O)[C@@H](O)[C@@H]1O` [Kanamycin, reference compound], the zone of clearance entry in test [2] (100 μg/mL, antibiotic control) was “large zones of clearance”; in test [3] (100 μg/mL, antibiotic control) it was “large zones of clearance”.
